Assay [1] concerns the target T1, MGL (Rattus norvegicus, UniProt Q8R431).
T1 construct: one g rat brain was homogenized using a Polytron homogenizer; from tissue; host or cells: rat brain homogenate
T1 sequence (Q8R431 1-303): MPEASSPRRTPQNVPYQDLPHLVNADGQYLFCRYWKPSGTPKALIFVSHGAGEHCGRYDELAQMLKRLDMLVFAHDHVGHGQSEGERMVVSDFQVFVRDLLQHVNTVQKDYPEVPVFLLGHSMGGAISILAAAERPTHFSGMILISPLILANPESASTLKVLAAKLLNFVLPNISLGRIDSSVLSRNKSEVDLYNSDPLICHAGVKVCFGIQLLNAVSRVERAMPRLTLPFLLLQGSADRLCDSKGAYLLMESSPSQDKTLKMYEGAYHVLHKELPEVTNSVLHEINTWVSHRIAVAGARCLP
The assay can be described thus: 2-AG accumulation assay in rat brain homogenate. The class given is biochemical. As to conditions: rat brain homogenate, 2-AG accumulation as percent of vehicle; for 2-AG accumulation, % of vehicle control at 1 µM: compound 1 μM, read-out: Rat Brain 2AG % VehCntrl (%) @ 1 μM; for 2-AG accumulation, % of vehicle control at 10 µM: compound 10 μM, read-out: Rat Brain 2AG % VehCntrl (%) @ 10 μM.

In assay [2] the target is T2, mutant MGL (Homo sapiens, UniProt Q99685, L169S/L176S).
T2 sequence (Q99685 1-303 L169S/L176S): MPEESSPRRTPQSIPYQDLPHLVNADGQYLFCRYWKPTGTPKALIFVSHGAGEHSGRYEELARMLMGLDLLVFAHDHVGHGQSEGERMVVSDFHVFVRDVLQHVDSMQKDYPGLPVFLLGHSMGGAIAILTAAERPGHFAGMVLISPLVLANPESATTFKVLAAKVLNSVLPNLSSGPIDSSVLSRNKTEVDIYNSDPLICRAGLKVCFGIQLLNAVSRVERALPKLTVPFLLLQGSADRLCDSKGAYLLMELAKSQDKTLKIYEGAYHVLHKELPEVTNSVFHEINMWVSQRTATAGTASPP
The assay can be described thus: MGL ThermoFluor assay - mutant. The class given is binding. As to conditions: read-out: MGL mutant ThermoFluor Kd. A general note: DSF heats the sample and reads unfolding from a dye or from intrinsic fluorescence.

[3] abbreviates: ThermoFluor thermal stability binding assay.
Setting [4] is: ThermoFluor concentration-response.

Structures are written as SMILES. Read-outs that look alike come from different tables or passages of the source.

The text below walks through data of US8362000B2, “Azetidinyl diamides as monoacylglycerol lipase inhibitors” (Janssen Pharmaceutica NV, priority 2009, dated 2013).

The Kd is the equilibrium constant for the complex coming apart. As to `Cc1nc(-c2ccc(Cl)cc2)sc1C(=O)N1CC(N2CCN(C(=O)c3cscn3)CC2)C1` [Cpd 1384], the 2-AG accumulation, % of vehicle control at 1 µM in assay [1] was 313%. Further, the Kd in assay [2] (setting [3]) was 61 nM.
As to `O=C(c1cscn1)N1CCN(C2CN(C(=O)c3cc4cc(C(F)(F)F)ccc4s3)C2)CC1` [Cpd 908], the 2-AG accumulation, % of vehicle control at 1 µM in assay [1] turned out to be 217%. The Kd in assay [2] (setting [3]) turned out to be 93 nM.
In the case of `O=C(c1ccc(-c2ccccc2)c(F)c1)N1CC(N2CCN(C(=O)c3cscn3)CC2)C1` [Cpd 170, 1-{1-[(2-Fluorobiphenyl-4-yl)carbonyl]azetidin-3-yl}-4-(1,3-thiazol-4-ylcarbonyl)piperazine], the 2-AG accumulation, % of vehicle control at 1 µM in assay [1] came to 205%. Also, in assay [2] (setting [4]), the Kd amounted to 60.6 nM.
As for `O=C(c1ccc(-c2ccccc2)cc1)N1CC(N2CCN(C(=O)c3ccc(Br)o3)CC2)C1` [Cpd 12, 1-[1-(Biphenyl-4-ylcarbonyl)azetidin-3-yl]-4-[(5-bromofuran-2-yl)carbonyl]piperazine], the 2-AG accumulation, % of vehicle control at 10 µM in assay [1] is 448%. In addition, the dissociation constant Kd in assay [2] (setting [4]) was found to be 14.3 nM.
Regarding `O=C(c1ccc2nc(-c3cccc(F)c3)sc2c1)N1CC(N2CCN(C(=O)c3nccs3)CC2)C1` [Cpd 1131], the 2-AG accumulation, % of vehicle control at 1 µM in assay [1] came out at 563%. Also, the equilibrium dissociation constant (Kd) in assay [2] (setting [3]) amounted to 16 nM.
Take `COc1cc(C(=O)N2CC(N3CCN(C(=O)c4ccccc4)CC3)C2)ccc1-c1ccc(Cl)c(C(F)(F)F)c1` [Cpd 264, 1-(1-{[4′-Chloro-2-methoxy-3′-(trifluoromethyl)biphenyl-4-yl]carbonyl}azetidin-3-yl)-4-(phenylcarbonyl)piperazine]: the 2-AG accumulation, % of vehicle control at 1 µM in assay [1] is 172%. The Kd in assay [2] (setting [3]) came out at 10 nM.
Consider `O=C(c1ccc(-c2ccc(Cl)cc2)cc1)N1CC(N2CCN(C(=O)c3nccs3)CC2)C1` [Cpd 163, 1-{1-[(4′-Chlorobiphenyl-4-yl)carbonyl]azetidin-3-yl}-4-(1,3-thiazol-2-ylcarbonyl)piperazine], for which, in assay [1], the 2-AG accumulation, % of vehicle control at 10 µM came to 923%. Besides, the dissociation constant (Kd) in assay [2] (setting [4]) came out at 3.45 nM.
As to `O=C(c1ccccc1)N1CCN(C2CN(C(=O)c3ccc(-c4ccc(C(F)(F)F)cc4)s3)C2)CC1` [Cpd 347], the 2-AG accumulation, % of vehicle control at 1 µM in assay [1] was 125%. Also, in assay [2] (setting [3]), the dissociation constant Kd came out at 125 nM.
As to `O=C(c1ccccc1)N1CCN(C2CN(C(=O)c3ccc(Oc4ccc(Cl)c(Cl)c4)cc3)C2)CC1` [Cpd 422, 1-(1-{[4-(3,4-Dichlorophenoxy)phenyl]carbonyl}azetidin-3-yl)-4-(phenylcarbonyl)piperazine], in assay [1], the 2-AG accumulation, % of vehicle control at 1 µM worked out at 120%. Besides, in assay [2] (setting [4]), the Kd amounted to 53.2 nM.
In the case of `O=C(c1ccccc1)N1CCN(C2CN(C(=O)c3ccc(N4CCCCCC4)cc3)C2)CC1` [Cpd 41, 1-[4-({3-[4-(Phenylcarbonyl)piperazin-1-yl]azetidin-1-yl}carbonyl)phenyl]azepane], the 2-AG accumulation, % of vehicle control at 10 µM in assay [1] is 544%. Further, the dissociation constant Kd in assay [2] (setting [4]) came to 4 nM.
In the same order, the values of `O=C(c1ccccc1)N1CCN(C2CN(C(=O)c3ccc(SCc4cccc(Cl)c4)cc3)C2)CC1` [Cpd 410, 1-[1-({4-[(3-Chlorobenzyl)sulfanyl]phenyl}carbonyl)azetidi-3-yl]-4-(phenylcarbonyl)piperazine] are 720% and 33.3 nM.
For the molecule `O=C(c1ccc(COc2cccc(Cl)c2)cc1)N1CC(N2CCN(C(=O)c3nccs3)CC2)C1` [Cpd 453, 1-[1-({4-[(3-Chlorophenoxy)methyl]phenyl}carbonyl)azetidin-3-yl]-4-(1,3-thiazol-2-ylcarbonyl)piperazine], the 2-AG accumulation, % of vehicle control at 1 µM in assay [1] stood at 917%. In addition, the Kd in assay [2] (setting [4]) worked out at 12 nM.
Consider `Cc1cc(C(=O)N2CC(N3CCN(C(=O)c4ccccc4)CC3)C2)ccc1-c1ccc(F)c(Cl)c1` [Cpd 259, 1-{1-[(3′-Chloro-4′-fluoro-2-methylbiphenyl-4-yl)carbonyl]azetidin-3-yl}-4-(phenylcarbonyl)piperazine], for which, in assay [1], the 2-AG accumulation, % of vehicle control at 1 µM was 156%. For the same molecule, the Kd in assay [2] (setting [3]) turned out to be 7.7 nM.
Take `O=C(c1nccs1)N1CCN(C2CN(C(=O)c3cc(-c4ccccc4)oc3C(F)(F)F)C2)CC1` [Cpd 1379]: in assay [1], the 2-AG accumulation, % of vehicle control at 1 µM amounted to 282%. Besides, the Kd in assay [2] (setting [3]) was 42 nM.
For `O=C(c1ccc2c(c1)CCCN2C(=O)c1cccc(C(F)(F)F)c1)N1CC(N2CCN(C(=O)c3nccs3)CC2)C1` [Cpd 358, 6-(3-[4-(1,3-Thiazol-2-ylcarbonyl)piperazin-1-yl]-azetidin-1-yl)-carbonyl 1-[3-(trifluoromethyl)phenyl]carbonyl-1,2,3,4-tetrahydroquinoline] the same measures were 556% and 65 nM.
As to `O=C(c1ccccc1)N1CCN(C2CN(C(=O)c3ccc(-c4cccc(Cl)c4)cc3)C2)CC1` [Cpd 77, 1-{1-[(3′-Chlorobiphenyl-4-yl)carbonyl]azetidin-3-yl}-4-(phenylcarbonyl)piperazine], the 2-AG accumulation, % of vehicle control at 10 µM in assay [1] amounted to 231%. In addition, the dissociation constant Kd in assay [2] (setting [4]) was found to be 9.09 nM.
As to `O=C(c1ccc(-c2ccccc2)cc1)N1CC(N2CCN(C(=O)c3ccc(Cl)o3)CC2)C1` [Cpd 312, 1-[1-(Biphenyl-4-ylcarbonyl)azetidin-3-yl]-4-[(5-chlorofuran-2-yl)carbonyl]piperazine], the 2-AG accumulation, % of vehicle control at 1 µM in assay [1] turned out to be 198%. Also, the dissociation constant Kd in assay [2] (setting [3]) worked out at 25 nM.
Regarding `O=C(c1ccc2c(c1)CCCN2C(=O)C1CC1)N1CC(N2CCN(C(=O)c3nccs3)CC2)C1` [Cpd 359, 1-(Cyclopropylcarbonyl)-6-({3-[4-(1,3-thiazol-2-ylcarbon-yl)piperazin-1-yl]azetidin-1-yl}carbonyl)-1,2,3,4-tetrahydroquinoline], in assay [1], the 2-AG accumulation, % of vehicle control at 1 µM stood at 176%. For the same molecule, the Kd in assay [2] (setting [3]) was determined as 82.9 nM.
As for `O=C(c1ccc(OCc2cccnc2)c(Cl)c1)N1CC(N2CCN(C(=O)c3nccs3)CC2)C1` [Cpd 402, 1-(1-{[3-Chloro-4-(pyridin-3-ylmethoxy)phenyl]carbon-yl}azetidin-3-yl)-4-(1,3-thiazol-2-ylcarbonyl)piperazine], in assay [1], the 2-AG accumulation, % of vehicle control at 1 µM is 97%. Further, the Kd in assay [2] (setting [3]) stood at 141 nM.
As for `O=C(c1ccc(C2CCCCC2)cc1)N1CC(N2CCN(C(=O)c3ccco3)CC2)C1` [Cpd 2, 1-{1-[(4-Cyclohexylphenyl)carbonyl]azetidin-3-yl}-4-(furan-2-ylcarbonyl)piperazine], in assay [1], the 2-AG accumulation, % of vehicle control at 10 µM amounted to 911%. In addition, the dissociation constant (Kd) in assay [2] (setting [4]) is 0.49 nM.
In the case of `O=C(/C=C/c1ccc(SC(F)(F)F)cc1)N1CC(N2CCN(C(=O)c3cscn3)CC2)C1` [Cpd 648], the 2-AG accumulation, % of vehicle control at 1 µM in assay [1] was 126%. Also, the equilibrium dissociation constant (Kd) in assay [2] (setting [4]) came out at 146 nM.
Take `O=C(c1ccc(-c2ccccc2)cc1)N1CC(N2CCN(C(=O)c3ccns3)CC2)C1` [Cpd 310, 1-[1-(Biphenyl-4-ylcarbonyl)azetidin-3-yl]-4-(isothiazol-5-ylcarbonyl)piperazine]: the 2-AG accumulation, % of vehicle control at 1 µM in assay [1] came to 141%. In assay [2] (setting [3]), the Kd came out at 250 nM.
Consider `COc1cncc(Oc2ccc(C(=O)N3CC(N4CCN(C(=O)c5nccs5)CC4)C3)cc2)c1` [Cpd 904], for which the 2-AG accumulation, % of vehicle control at 1 µM in assay [1] turned out to be 392%. Moreover, the Kd in assay [2] (setting [4]) was 633 nM.
For `O=C(c1ccc(Oc2ccc(Cl)c(Cl)c2)cc1)N1CC(N2CCN(C(=O)c3nccs3)CC2)C1` [Cpd 423, 1-(1-{[4-(3,4-Dichlorophenoxy)phenyl]carbonyl}azetidin-3-yl)-4-(1,3-thiazol-2-ylcarbonyl)piperazine] the same measures were 529% and 6.9 nM.
`O=C(c1ccc(Sc2cccc(Cl)c2)cc1)N1CC(N2CCN(C(=O)c3cscn3)CC2)C1` [Cpd 429]: the 2-AG accumulation, % of vehicle control at 1 µM in assay [1] was determined as 318%. Besides, the dissociation constant Kd in assay [2] (setting [4]) was found to be 33.1 nM.
In the same order, the values of `O=C(c1ccc(CNc2cccc(Cl)c2)cc1)N1CC(N2CCN(C(=O)c3cscn3)CC2)C1` [Cpd 969] are 515% and 69 nM.
For `O=C(c1ccccc1)N1CCN(C2CN(C(=O)c3ccc(OCc4ccccn4)c(Cl)c3)C2)CC1` [Cpd 406], the 2-AG accumulation, % of vehicle control at 1 µM in assay [1] is 99%. For the same molecule, the dissociation constant (Kd) in assay [2] (setting [3]) turned out to be 932 nM.
As for `O=C(c1ccccc1)N1CCN(C2CN(C(=O)c3ccc(OCc4cccc(Cl)c4)c(Cl)c3)C2)CC1` [Cpd 397, 1-[1-({3-Chloro-4-[(3-chlorobenzyl)oxy]phenyl}carbonyl)azetidin-3-yl]-4-(phenylcarbonyl)piperazine], the 2-AG accumulation, % of vehicle control at 10 µM in assay [1] amounted to 243%. Also, the Kd in assay [2] (setting [3]) was determined as 33.3 nM.
`O=C(c1ccc2c(c1)CCCN2S(=O)(=O)c1cccc(C(F)(F)F)c1)N1CC(N2CCN(C(=O)c3nccs3)CC2)C1` [Cpd 367, 6-({3-[4-(1,3-Thiazol-2-ylcarbonyl)piperazin-1-yl]azetidin-1-yl}carbonyl)-1-{[3-(trifluoromethyl)phenyl]sulfonyl}-1,2,3,4-tetrahydroquinoline]: the 2-AG accumulation, % of vehicle control at 1 µM in assay [1] was found to be 701%. The equilibrium dissociation constant (Kd) in assay [2] (setting [3]) amounted to 85.3 nM.
As to `O=C(c1ccc(OCc2cccc(Br)n2)cc1)N1CC(N2CCN(C(=O)c3nccs3)CC2)C1` [Cpd 983], in assay [1], the 2-AG accumulation, % of vehicle control at 1 µM is 194%. Besides, the Kd in assay [2] (setting [3]) amounted to 19 nM.
